In the COVID Moonshot data (paper PMC11187573), “Identification of SARS-CoV-2 Mpro inhibitors through deep reinforcement learning for de novo drug design and computational chemistry approaches” (RSC Medicinal Chemistry, 2024):

How the values were obtained:
[1] = biological target: SARS-CoV-2 Main Protease (SARS-CoV-2) (UniProt P0DTD1)
Protocol: Compounds were seeded into assay-ready plates (Greiner 384 low volume, cat 784900) using an Echo 555 acoustic dispenser, and DMSO was back-filled for a uniform concentration in assay plates (DMSO concentration maximum 1%) Screening assays were performed in duplicate at 20µM and 50µM. […] Dose response assays were performed in 12 point dilutions of 2-fold, typically beginning at 100µM. […] Reagents for Mpro assay were dispensed into the assay plate in 10µl volumes for a final volume of 20µL.
Mpro was pre-incubated for 15 minutes at room temperature with compound before addition of substrate and a further 30 minute incubation. Protease reaction was measured in a BMG Pherastar FS with a 480/520 ex/em filter set. Raw data was mapped and normalized to high (Protease with DMSO) and low (No Protease) controls using Genedata Screener software.

[2] = biological target: SARS-CoV-2 Main Protease (SARS-CoV-2) (UniProt P0DTD1); remark: listed apart in the source

SMILES | inhibition ([1]; 20.0 µM) [%] | inhibition ([1]; 50.0 µM) [%] | inhibition ([2]; 20.0 µM) [%] | inhibition ([2]; 50.0 µM) [%] | relative solubility at 20 uM | relative solubility at 100 uM | IC50 [2] [µM]
CCN(C)CC1CCN(c2ccc(S(N)(=O)=O)cc2)CC1 | 3.39 | 6.02 | 0 | 0 | 1 | 0.98 | –
O=C(c1cc(=O)[nH]c2ccc(F)cc12)N1CCN(S(=O)(=O)c2ccccc2Cl)CC1 | 19.5 | 35.1 | – | 39.8 | 0.98 | 0.93 | –
Cc1c(C(=O)NC(CC(=O)O)c2cccc(Cl)c2)cnc2ccccc12 (stereo not drawn) | -13 | 6.12 | – | 8.52 | 1 | 1 | –
CCNc1ncc(C#N)cc1CN1CCN(C(=O)CCl)CC1 | 99.7 | 102 | – | 99.7 | 0.98 | 0.95 | 1.64
Cc1cnn(C)c1NC(=O)Cc1cccc(Cl)c1 | 3.11 | 5.06 | – | 23.1 | 0.99 | 0.99 | –
Cn1cc(S(N)(=O)=O)cc1CC(=O)Nc1cccc(C(=O)NCc2ccccn2)c1 | -21.5 | -0.596 | – | 0 | 1 | 1 | –
N#CC(C(=O)Nc1cccc(Cl)c1)C(=O)c1cccs1 (stereo not drawn) | – | 31.8 | 0 | 0 | 1 | 1 | –
CC(C)[C@@H](C#N)NS(=O)(=O)c1ccc(CF)cc1 (stereo in doubt) | – | -14 | 1.55 | 22.1 | 1 | 1 | –
CS(=O)(=O)NCCc1cccc(O)c1 | -1.8 | 0.0445 | -2.45 | 1.46 | 1 | 1 | –
O=C(C1CCN(c2ccncc2)CC1)N1CCOCC1 | – | -22.6 | 0 | 0 | 1 | 1 | –
CO[C@H](C)C(=O)Nc1cnccc1C (stereo in doubt) | 4.95 | 8.97 | – | 6.56 | 1.01 | 1 | –
CCCc1cc2c(cc1S(=O)(=O)N1CCN(c3ccccc3)CC1)OCO2 | 8.44 | -17.1 | – | 68.3 | 0.91 | 0.92 | 16
Cc1ccncc1NC(=O)Cc1cc(Cl)c2c(c1)OCCO2 | 9.83 | 22.2 | – | 10.9 | 1 | 1 | –
O=C(NCCNc1ccnc2cc(Cl)ccc12)Nc1ccc(F)cc1 | 20.4 | 29.5 | 0 | 0 | 0.99 | 0.94 | –
C=CC(=O)N(c1cc(C(C)(C)C)n[nH]1)C(C(=O)Nc1ccc(Cl)cc1)c1cccnc1 (stereo not drawn) | 6.12 | 19.5 | 0 | – | 0.78 | 0.68 | –
CCOC(=O)c1nc(S(C)(=O)=O)ncc1Cl | 96.9 | 98.5 | – | 100 | 0.99 | 0.99 | 1.04
CC1(C)CC(C(=O)Nc2nncn2C2CC2)c2ccccc2O1 (stereo not drawn) | -0.71 | -5.02 | – | 0 | 1 | 0.98 | –
Cc1nnc(NC(=O)Nc2cccnc2)s1 | 1.19 | 7.32 | 4.62 | 8.86 | 1 | 0.99 | –
C=CC(=O)N(c1cc(C(C)(C)C)on1)C(C(=O)NCCc1cccc(F)c1)c1cccnc1 (stereo not drawn) | 16.7 | 31.3 | – | 100 | 0.98 | 0.97 | 10.9

SMILES | inhibition ([1]; 20.0 µM) [%] | inhibition ([1]; 50.0 µM) [%] | inhibition ([2]; 20.0 µM) [%] | inhibition ([2]; 50.0 µM) [%] | relative solubility at 20 uM | relative solubility at 100 uM | IC50 [2] [µM]
C=CC(=O)N(c1ccc(C(C)(C)C)cc1)C(C(=O)NCC1CCCO1)c1cccnc1 (stereo not drawn) | 70.8 | 44.1 | 0 | 25.6 | 1 | 0.99 | –
Cc1cccc(C)c1OCC(=O)NCCc1ccccc1 | 1.78 | 7.25 | 0 | 0 | 1 | 0.98 | –
C=CC(=O)N(c1ccc2ncsc2c1)C(C(=O)Nc1ccc(OC)cc1)c1cccnc1 (stereo not drawn) | 4.02 | 15.4 | 0 | – | 0.92 | 0.87 | –
O=C(Cc1cccc(Cl)c1)Nc1nncs1 | -9.94 | -3.05 | – | 0 | 1 | 0.78 | –
O=C1C(=O)N(Cc2ccc(Br)cc2)c2ccccc21 | -3.27 | 0.439 | – | 100 | 1.01 | 0.9 | 0.747
CS(=O)(=O)Nc1cccc(C(=O)Oc2cccc(N3CCCC3=O)c2)c1 | – | 35.7 | 0 | 11.2 | 0.99 | 0.86 | –
Cc1cc(C)cc(CS(=O)(=O)N[C@@]23COC[C@@H]2C3)c1 (stereo in doubt) | 6.03 | -9.38 | – | 0 | 1 | 1 | –
Cc1noc(C)c1COc1ccccc1C(=O)NC(C)c1nnc2ncccn12 (stereo not drawn) | 2.22 | 8.28 | 0 | 18.5 | 0.99 | 0.94 | –
Cc1ccncc1NC(=O)c1ccc(NC(=O)Nc2cccnc2)cc1 | – | -23 | 3.1 | 0 | 1 | 0.99 | –
Cc1ccc(C)c(S(=O)(=O)N2CCN(C(=O)CCl)CC2)c1 | – | 101 | 90.8 | 96.3 | 0.99 | 0.98 | –
CCC(CC)C(=O)C(C#N)C(=O)Nc1ccc(F)cc1 (stereo not drawn) | – | -16.2 | 0 | 0 | 1 | 1 | –
O=C(CCl)Nc1cccc(-c2ccc3c(c2)CCCC3)c1 | 10.8 | 15.2 | – | 47.7 | 0.9 | 0.87 | –
C=CC(=O)N(c1cc(C)cc(N)c1)C(C(=O)NC(C)(C)C)c1cccnc1 (stereo not drawn) | -15.1 | -19.4 | 0 | 0 | 0.99 | 0.98 | –
CCN(Cc1cccc(-c2ccncc2)c1)C(=O)Cc1noc2ccccc12 | -25.4 | -15.8 | 0 | – | 0.98 | 0.85 | –
O=C(NCc1cccnn1)Nc1cccc(OCCN2CCOCC2)c1 | 1.16 | 1.22 | 0 | 0 | 1 | 0.99 | –
O=C(CC(=O)N1CCOCC1)NCc1ccccc1 | -1.44 | 15.1 | 0 | 0 | 0.99 | 1 | –
Cc1ccncc1NC(=O)Nc1cccc(Cl)c1 | 32.1 | 58.7 | 25.6 | 64.1 | 0.99 | 0.96 | 45.7
N#Cc1cccc(CN2CCN(C(=O)CCl)CC2)c1 | 53.4 | 85.2 | 64.3 | – | 1.01 | 0.99 | 12.2
